Several values for one entry are separate records, joined by “and”; a condition that tells them apart may be missing. Equal values may be shown once.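 Step 1: Grow cells in 96-well plates. Step 2: Expose to compound for 48 hours at 5 concentrations. Step 3: Interpolate endpoints linearly; if unreached, use highest concentration. The concentration for 50% growth inhibition is given as GI50. At the TGI there is no net growth.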

Usually TGI stands for the concentration at which net growth stops. As usually defined, the GI50 is the concentration giving 50% growth inhibition.

Among the test systems are T-47D breast; MOLT-4 leukemia; U251 CNS; HS 578T breast; OVCAR-5 ovarian; HCT-116 colon; TK-10 renal; OVCAR-8 ovarian; NCI-H522 lung; MDA-MB-231 breast.
What all share (experiment): DTP human tumour cell line panel, 48 h

As for `COc1c(OC(C)C)cc2cc(O)c(C(=O)NC3Cc4ccc(c(Cl)n4)O[C@@H]4C=C5C#C/C(=C\C#CC6OC56C4OC4CC(C)(O)C(O)C(C)O4)C(OC4CC(O)C(N(C)C)C(C)O4)COC3=O)cc2c1OC` (stereo not given in full), the concentration for total growth inhibition (TGI) in the assay on T-47D breast was more than 36.3 µM; in the assay with MOLT-4 leukemia it was 14.2 µg/mL; in the assay with U251 CNS, > 36.3 µM and 9.98 µg/mL; in the assay on HS 578T breast, more than 36.3 µM; in the assay with OVCAR-5 ovarian, > 36.3 µM and 27.5 µg/mL; in the assay with HCT-116 colon, 15.7 µg/mL. Further, the TGI in the assay on TK-10 renal is > 36.3 µM and 37.5 µg/mL; in the assay with OVCAR-8 ovarian, > 36.3 µM and 37.5 µg/mL; in the assay with NCI-H522 lung it was > 36.3 µM and 15.8 µg/mL. For the same compound, the GI50 in the assay on MOLT-4 leukemia was 0.00979 µg/mL; in the assay on U251 CNS, 5.61 µM and 0.596 µg/mL; in the assay with OVCAR-5 ovarian, > 36.3 µM and 4.02 µg/mL; in the assay on HCT-116 colon, 0.584 µg/mL; with TK-10 renal, > 36.3 µM and 37.5 µg/mL; in the assay with OVCAR-8 ovarian it was 26.7 µM and 1.18 µg/mL. Besides, in the assay with NCI-H522 lung, the GI50 was 29.6 µM and 1.25 µg/mL.

In the case of `CCOC(=O)C(Cc1ccc(N(CCCl)CCCl)cc1)NC(=O)C(Cc1ccccc1)NC(C)=O` (stereo not given), the total growth inhibition concentration (TGI) with T-47D breast is more than 0.928 µM; in the assay on MOLT-4 leukemia, 0.201 µM; with U251 CNS, more than 0.787 µM; in the assay on HS 578T breast it was more than 1 µM; in the assay with MDA-MB-231 breast it was more than 0.366 µM; in the assay on OVCAR-5 ovarian, more than 0.435 µM. The total growth inhibition concentration (TGI) in the assay with HCT-116 colon is more than 0.388 µM; in the assay with TK-10 renal, more than 0.325 µM; in the assay with OVCAR-8 ovarian, more than 1 µM.

On to `Nc1nc2ccccc2c2c1S(=O)(=O)c1ccc(Cl)cc1C2=O`, for which the GI50 in the assay with T-47D breast is 1.24 µM; with MOLT-4 leukemia it was 1.42 µM; with U251 CNS, 1.79 µM; with MDA-MB-231 breast, 1.57 µM; in the assay on OVCAR-5 ovarian it was 1.42 µM; in the assay on HCT-116 colon, 1.87 µM. Also, the figures for the GI50 in the assay with TK-10 renal, with OVCAR-8 ovarian and in the assay with NCI-H522 lung were 1.93 µM, 1.54 µM and 0.86 µM, respectively. The total growth inhibition concentration (TGI) in the assay with T-47D breast is more than 50 µM; with MOLT-4 leukemia, 8.86 µM; with U251 CNS, 18.3 µM; with MDA-MB-231 breast, more than 50 µM; in the assay on OVCAR-5 ovarian, 4.62 µM; with HCT-116 colon, 32 µM. The TGI with TK-10 renal is more than 50 µM; with OVCAR-8 ovarian it was more than 50 µM; in the assay on NCI-H522 lung, 2.2 µM.

For the compound `C=C1C(=O)O[C@H]2[C@H]1CC/C(COC(=O)NCc1c[nH]c3ccc(F)cc13)=C\CC[C@@]1(C)O[C@@H]21`, the GI50 in the assay on MOLT-4 leukemia is 1.42 µM; with U251 CNS, 2.35 µM; in the assay on HS 578T breast, 3.36 µM; with MDA-MB-231 breast, 1.63 µM; in the assay with OVCAR-5 ovarian, 1.81 µM; in the assay on HCT-116 colon it was 0.703 µM. Besides, the figures for the GI50 in the assay on TK-10 renal, with OVCAR-8 ovarian and in the assay with NCI-H522 lung were 1.58 µM, 1.68 µM and 0.835 µM, respectively. Besides, the TGI in the assay on MOLT-4 leukemia was found to be 5.07 µM; with U251 CNS it was 5.81 µM; with HS 578T breast, 26.6 µM; in the assay with MDA-MB-231 breast, 3.16 µM; with OVCAR-5 ovarian, 4.05 µM; in the assay on HCT-116 colon it was 2.04 µM. In addition, the values for the concentration for total growth inhibition (TGI) in the assay with TK-10 renal, in the assay on OVCAR-8 ovarian and in the assay on NCI-H522 lung were 3 µM, 3.91 µM and 2.4 µM, respectively.

With `COc1cc(/C=C/C(=O)O[C@H]2[C@H](O[C@@H]3O[C@@H](C)[C@H](O)[C@@H](O)[C@H]3O)[C@@H](O)[C@H](OCCc3ccc(O)c(O)c3)O[C@@H]2COC2OCC(O)(CO)C2O)ccc1O` (stereo not given in full), the GI50 in the assay with T-47D breast was more than 100 µM; in the assay with MOLT-4 leukemia, more than 100 µM; in the assay on U251 CNS, more than 100 µM; with HS 578T breast it was 67.6 µM; in the assay with MDA-MB-231 breast, more than 100 µM; in the assay with OVCAR-5 ovarian, more than 100 µM. Further, the GI50 with HCT-116 colon, in the assay with TK-10 renal and in the assay on NCI-H522 lung was more than 100 µM throughout. Also, the TGI in the assay with T-47D breast, in the assay on MOLT-4 leukemia, in the assay with U251 CNS, in the assay with HS 578T breast, in the assay on MDA-MB-231 breast and in the assay on OVCAR-5 ovarian was more than 100 µM in each case. In addition, the concentration for total growth inhibition (TGI) in the assay with HCT-116 colon, in the assay with TK-10 renal and in the assay on NCI-H522 lung was more than 100 µM throughout.

As to `N#CC1C(N)=NNC12Nc1ccccc1S2` (stereo not given), the GI50 is 4.04 µM in the assay with T-47D breast; 5.84 µM in the assay on U251 CNS; 17.4 µM in the assay with HS 578T breast; 3.59 µM in the assay on MDA-MB-231 breast; 31.5 µM in the assay on OVCAR-5 ovarian; 11.5 µM with HCT-116 colon. Besides, the results for the GI50 in the assay on TK-10 renal, with OVCAR-8 ovarian and in the assay on NCI-H522 lung were 41.5 µM, 13 µM and 7.8 µM, respectively. Also, the TGI in the assay with T-47D breast worked out at 50.3 µM; in the assay with U251 CNS, 20.3 µM; with HS 578T breast, 71.7 µM; with MDA-MB-231 breast, 16.6 µM; in the assay on OVCAR-5 ovarian, 76.5 µM; with HCT-116 colon it was 35.9 µM. Besides, the TGI with TK-10 renal was more than 100 µM; with OVCAR-8 ovarian, 61.1 µM; in the assay on NCI-H522 lung, 29.7 µM.

Turning to `Cc1ccc(S(=O)(=O)NC(=O)OC23COCN2COC3)cc1`, the TGI in the assay with T-47D breast, in the assay with U251 CNS, with HS 578T breast, in the assay on MDA-MB-231 breast, in the assay on OVCAR-5 ovarian and in the assay with HCT-116 colon was more than 100 µM each time. The TGI in the assay with TK-10 renal, with OVCAR-8 ovarian and in the assay on NCI-H522 lung was more than 100 µM throughout.

For the compound `CC(C)(C)c1cc(C(=O)O)c2c(c1)C(=O)OC2(c1ccccc1)c1ccccc1C(=O)O` (stereo not given), the GI50 in the assay on T-47D breast, in the assay on HS 578T breast and in the assay on MDA-MB-231 breast was more than 100 µM each time. Besides, the concentration for total growth inhibition (TGI) in the assay on T-47D breast, in the assay on MOLT-4 leukemia, in the assay with HS 578T breast, in the assay with MDA-MB-231 breast, in the assay with OVCAR-5 ovarian and with HCT-116 colon was more than 100 µM each time. Also, the concentration for total growth inhibition (TGI) in the assay with TK-10 renal and in the assay with OVCAR-8 ovarian was more than 100 µM throughout.

In the case of `CCN(Cc1ccc(F)cc1)c1ccc(CO)c(C(F)(F)F)c1`, the GI50 in the assay with T-47D breast was 1.84 µM; with MOLT-4 leukemia, 15.2 µM; with U251 CNS, 4.1 µM; with HS 578T breast, 14.1 µM; in the assay on MDA-MB-231 breast it was 14.3 µM; in the assay with OVCAR-5 ovarian it was 1.28 µM. The GI50 with HCT-116 colon was 1.54 µM; in the assay with OVCAR-8 ovarian, 14.3 µM; in the assay with NCI-H522 lung, 12.5 µM. Moreover, the TGI stood at 10.4 µM with T-47D breast; 43.5 µM with MOLT-4 leukemia; 18.4 µM in the assay on U251 CNS; 40.3 µM in the assay with HS 578T breast; 27.3 µM in the assay on MDA-MB-231 breast; 5 µM with OVCAR-5 ovarian. For the same compound, the concentration for total growth inhibition (TGI) with HCT-116 colon was 12.8 µM; with OVCAR-8 ovarian, 27.3 µM; with NCI-H522 lung, 26.9 µM.

These data come from PubChem BioAssay (NCI).
